Assay results taken from PubChem BioAssay (NCI).
“And” between values parts separate entries of the source, which are not always exact repeats. Equal entries are not always repeated.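 In this assay, cells in 96-well plates receive the compound at five concentrations for 48 hours. Endpoints are linearly interpolated between the surrounding concentrations. At the GI50, growth is halved. TGI marks complete inhibition of growth.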

Assays:
Assay in all cases: NCI tumour cell line growth inhibition, 48 h
A498 renal = tested on: A498 renal
HCC-2998 colon = tested on: HCC-2998 colon
HCT-116 colon = tested on: HCT-116 colon
NCI-H226 lung = tested on: NCI-H226 lung
OVCAR-5 ovarian = tested on: OVCAR-5 ovarian
PC-3 prostate = tested on: PC-3 prostate
SF-295 CNS = tested on: SF-295 CNS
SK-MEL-5 melanoma = tested on: SK-MEL-5 melanoma
SN12C renal = tested on: SN12C renal
OVCAR-3 ovarian = tested on: OVCAR-3 ovarian

COC(=O)[C@H](Cc1ccccc1)NC(=O)c1csc([C@@H](C[C@H](C(C)C)N(C)C(=O)[C@@H](NC(=O)[C@H]2CCCN2C)C2CC2)OC(C)=O)n1
GI50 (A498 renal): 1.53 µM
TGI (A498 renal): 15.2 µM
GI50 (HCC-2998 colon): 1.48 µM
TGI (HCC-2998 colon): > 33.3 µM
GI50 (HCT-116 colon): 0.138 µM
TGI (HCT-116 colon): 21.4 µM
GI50 (NCI-H226 lung): 3.93 µM
TGI (NCI-H226 lung): > 33.3 µM
GI50 (OVCAR-5 ovarian): 1.66 µM
TGI (OVCAR-5 ovarian): > 33.3 µM
GI50 (PC-3 prostate): 0.572 µM
TGI (PC-3 prostate): > 33.3 µM
GI50 (SF-295 CNS): 0.254 µM
TGI (SF-295 CNS): > 33.3 µM
GI50 (SK-MEL-5 melanoma): 0.671 µM
TGI (SK-MEL-5 melanoma): 8.99 µM
GI50 (SN12C renal): 0.548 µM
TGI (SN12C renal): > 33.3 µM

COc1ccc2cc(-c3c(-c4ccncc4)nc(-c4ccc(S(C)=O)cc4C)n3C)ccc2c1 (stereo not given)
GI50 (A498 renal): 8.32 µM
TGI (A498 renal): > 25 µM
GI50 (HCC-2998 colon): > 25 µM
TGI (HCC-2998 colon): > 25 µM
GI50 (HCT-116 colon): 17.9 µM
TGI (HCT-116 colon): > 25 µM
GI50 (NCI-H226 lung): > 20.5 µM
TGI (NCI-H226 lung): > 25 µM
GI50 (OVCAR-3 ovarian): 14.3 µM
TGI (OVCAR-3 ovarian): > 25 µM
GI50 (OVCAR-5 ovarian): > 25 µM
TGI (OVCAR-5 ovarian): > 25 µM
GI50 (PC-3 prostate): 15.9 µM
TGI (PC-3 prostate): > 25 µM
GI50 (SF-295 CNS): 16.6 µM
TGI (SF-295 CNS): > 25 µM
GI50 (SK-MEL-5 melanoma): 7.58 µM
TGI (SK-MEL-5 melanoma): > 21.6 µM
GI50 (SN12C renal): 15.7 µM
TGI (SN12C renal): > 25 µM

COc1cc([C@H]2c3[nH]c4ccccc4c3C[C@H]3COC(=O)N32)cc(OC)c1O
TGI (A498 renal): 20.9 µM
TGI (HCC-2998 colon): 27 µM
TGI (HCT-116 colon): 51.2 µM
TGI (NCI-H226 lung): 28.5 µM
TGI (OVCAR-5 ovarian): > 100 µM
TGI (PC-3 prostate): > 100 µM
TGI (SF-295 CNS): 81.8 µM
TGI (SK-MEL-5 melanoma): 17.4 µM
TGI (SN12C renal): 59.7 µM

CN(C)CCCN1c2ccccc2Sc2ccc(Cl)cc21
GI50 (A498 renal): 10.5 µM and 3.46 µM
TGI (A498 renal): 23.7 µM and 16.6 µM
GI50 (HCC-2998 colon): 1.97 µM
TGI (HCC-2998 colon): 4.14 µM
GI50 (HCT-116 colon): 3.28 µM and 3.6 µM
TGI (HCT-116 colon): 10.9 µM and 12.8 µM
GI50 (NCI-H226 lung): 13.1 µM and 15.2 µM
TGI (NCI-H226 lung): 29.8 µM and 29.1 µM
GI50 (OVCAR-3 ovarian): 3.83 µM and 6.36 µM
TGI (OVCAR-3 ovarian): 12.6 µM and 18.8 µM
GI50 (OVCAR-5 ovarian): 5.2 µM and 11.8 µM
TGI (OVCAR-5 ovarian): 17.6 µM and 24.8 µM
GI50 (PC-3 prostate): 11.9 µM and 4.52 µM
TGI (PC-3 prostate): 26.3 µM and 17.3 µM
GI50 (SF-295 CNS): 4.13 µM and 8.91 µM
TGI (SF-295 CNS): 17.3 µM and 22.9 µM
GI50 (SK-MEL-5 melanoma): 1.71 µM and 1.77 µM
TGI (SK-MEL-5 melanoma): 3.11 µM and 3.35 µM
GI50 (SN12C renal): 3.85 µM and 4.87 µM
TGI (SN12C renal): 14.8 µM and 17.7 µM

CC[C@H](C)[C@H](NC(=O)[C@H]1CCCCN1C)C(=O)N(C)[C@H](C[C@@H](OC(C)=O)c1nc(C(=O)N[C@@H](Cc2ccccc2)C[C@H](C)C(=O)OC)cs1)C(C)C
GI50 (A498 renal): 0.000267 µM and < 0.0025 µM
TGI (A498 renal): < 0.0025 µM
GI50 (HCC-2998 colon): 0.00032 µM and 0.0025 µM
TGI (HCC-2998 colon): > 25 µM
GI50 (HCT-116 colon): 0.000357 µM
GI50 (NCI-H226 lung): 0.00234 µM and < 0.0025 µM
TGI (NCI-H226 lung): < 0.0025 µM
GI50 (OVCAR-3 ovarian): 4.24e-05 µM
TGI (OVCAR-3 ovarian): 0.0116 µM
GI50 (OVCAR-5 ovarian): 0.000583 µM and 0.0025 µM
TGI (OVCAR-5 ovarian): > 25 µM
TGI (PC-3 prostate): > 25 µM
TGI (SF-295 CNS): 0.000762 µM and 0.00468 µM
GI50 (SK-MEL-5 melanoma): 9.09e-05 µM and < 0.0025 µM
TGI (SK-MEL-5 melanoma): 0.00455 µM and < 0.0025 µM
GI50 (SN12C renal): 0.00076 µM and 0.0025 µM
TGI (SN12C renal): > 25 µM

CCc1cccc(CC)c1/C=C/c1cncc(C(=O)NC)c1
GI50 (A498 renal): 8.68 µM
TGI (A498 renal): > 22.2 µM
GI50 (HCC-2998 colon): 11.2 µM
TGI (HCC-2998 colon): > 25 µM
GI50 (HCT-116 colon): 9.46 µM
TGI (HCT-116 colon): > 25 µM
GI50 (NCI-H226 lung): 17.2 µM
TGI (NCI-H226 lung): > 25 µM
GI50 (OVCAR-3 ovarian): 8.14 µM
TGI (OVCAR-3 ovarian): > 20.2 µM
GI50 (OVCAR-5 ovarian): > 17.6 µM
TGI (OVCAR-5 ovarian): > 25 µM
GI50 (PC-3 prostate): 13.9 µM
TGI (PC-3 prostate): > 25 µM
GI50 (SF-295 CNS): 11.6 µM
TGI (SF-295 CNS): > 25 µM
GI50 (SK-MEL-5 melanoma): 5.71 µM
TGI (SK-MEL-5 melanoma): > 16.2 µM
GI50 (SN12C renal): 10.8 µM
TGI (SN12C renal): > 25 µM

COc1ccc(C(=O)C[C@]2(O)C(=O)Nc3c(Cl)ccc(Cl)c32)cc1
GI50 (A498 renal): 0.295 µM
TGI (A498 renal): 1.52 µM
GI50 (HCC-2998 colon): 1.96 µM
TGI (HCC-2998 colon): > 100 µM
GI50 (HCT-116 colon): 0.406 µM
TGI (HCT-116 colon): 24.6 µM
GI50 (NCI-H226 lung): 3.02 µM
TGI (NCI-H226 lung): > 100 µM
GI50 (OVCAR-3 ovarian): 0.348 µM
TGI (OVCAR-3 ovarian): 7.19 µM
GI50 (OVCAR-5 ovarian): 2.43 µM
TGI (OVCAR-5 ovarian): > 100 µM
GI50 (PC-3 prostate): 1.16 µM
TGI (PC-3 prostate): > 100 µM
GI50 (SF-295 CNS): 0.516 µM
TGI (SF-295 CNS): > 100 µM
GI50 (SK-MEL-5 melanoma): 0.573 µM
TGI (SK-MEL-5 melanoma): 22.3 µM
GI50 (SN12C renal): 0.87 µM
TGI (SN12C renal): > 100 µM

CC(C)(CO)N=Cc1ccccc1[O-].CC(C)(CO)N=Cc1ccccc1[O-].[Co+2]
GI50 (A498 renal): > 100 µM
TGI (A498 renal): > 100 µM
GI50 (HCC-2998 colon): 75.4 µM
TGI (HCC-2998 colon): > 100 µM
GI50 (HCT-116 colon): 69.8 µM
TGI (HCT-116 colon): > 100 µM
GI50 (NCI-H226 lung): 27.9 µM
TGI (NCI-H226 lung): > 100 µM
GI50 (OVCAR-3 ovarian): 36.3 µM
TGI (OVCAR-3 ovarian): > 100 µM
GI50 (OVCAR-5 ovarian): > 79.7 µM
TGI (OVCAR-5 ovarian): > 100 µM
GI50 (PC-3 prostate): 49.3 µM
TGI (PC-3 prostate): > 100 µM
GI50 (SF-295 CNS): > 100 µM
TGI (SF-295 CNS): > 100 µM
GI50 (SK-MEL-5 melanoma): 42.5 µM
TGI (SK-MEL-5 melanoma): > 100 µM
GI50 (SN12C renal): > 96.6 µM
TGI (SN12C renal): > 100 µM

CCN(CC)CCOc1ccc(/C=C2\CC3C4CC=C5C[C@@H](OC(C)=O)CC[C@]5(C)C4CC[C@]3(C)C2=O)cc1OC (stereo not given in full)
GI50 (A498 renal): 3.01 µM
TGI (A498 renal): 11.6 µM
GI50 (HCC-2998 colon): 3.74 µM
TGI (HCC-2998 colon): 14.1 µM
GI50 (HCT-116 colon): 1.92 µM
TGI (HCT-116 colon): 5.61 µM
GI50 (NCI-H226 lung): 13.3 µM
TGI (NCI-H226 lung): 35.9 µM
GI50 (OVCAR-3 ovarian): 1.78 µM
TGI (OVCAR-3 ovarian): 3.45 µM
GI50 (OVCAR-5 ovarian): 3.38 µM
TGI (OVCAR-5 ovarian): 12.4 µM
GI50 (PC-3 prostate): 4.16 µM
TGI (PC-3 prostate): 26.9 µM
GI50 (SF-295 CNS): 2.02 µM
TGI (SF-295 CNS): 3.94 µM
GI50 (SN12C renal): 12.6 µM
TGI (SN12C renal): 30.1 µM

C1=C2CNCC3=Cc4ccc5ccccc5c4OC23Oc2c1ccc1ccccc21
GI50 (A498 renal): 3.87 µM
TGI (A498 renal): 17 µM
GI50 (HCC-2998 colon): 3.99 µM
TGI (HCC-2998 colon): 19.7 µM
GI50 (HCT-116 colon): 3.01 µM
TGI (HCT-116 colon): 13.1 µM
GI50 (NCI-H226 lung): 10.6 µM
TGI (NCI-H226 lung): 27.6 µM
GI50 (OVCAR-3 ovarian): 2.34 µM
TGI (OVCAR-3 ovarian): 5.5 µM
GI50 (PC-3 prostate): 3.5 µM
TGI (PC-3 prostate): 18.2 µM
GI50 (SF-295 CNS): 3.07 µM
TGI (SF-295 CNS): 15.6 µM
GI50 (SK-MEL-5 melanoma): 3.15 µM
TGI (SK-MEL-5 melanoma): 13.9 µM
GI50 (SN12C renal): 4.22 µM
TGI (SN12C renal): 20.1 µM
